# How the values were obtained:
# [1] = biological target: T1, Human recombinant liver glycogen phosphorylase a (hrl GPa) (Homo sapiens, UniProt P06737); experiment: glycogen phosphorylase multienzyme coupled assay (glucose-1-phosphate production from glycogen); format: biochemical; settings: hrl GPa 20 nM, 6 hours at 30° C., 8 mM glucose
# T1 sequence (P06737 1-847): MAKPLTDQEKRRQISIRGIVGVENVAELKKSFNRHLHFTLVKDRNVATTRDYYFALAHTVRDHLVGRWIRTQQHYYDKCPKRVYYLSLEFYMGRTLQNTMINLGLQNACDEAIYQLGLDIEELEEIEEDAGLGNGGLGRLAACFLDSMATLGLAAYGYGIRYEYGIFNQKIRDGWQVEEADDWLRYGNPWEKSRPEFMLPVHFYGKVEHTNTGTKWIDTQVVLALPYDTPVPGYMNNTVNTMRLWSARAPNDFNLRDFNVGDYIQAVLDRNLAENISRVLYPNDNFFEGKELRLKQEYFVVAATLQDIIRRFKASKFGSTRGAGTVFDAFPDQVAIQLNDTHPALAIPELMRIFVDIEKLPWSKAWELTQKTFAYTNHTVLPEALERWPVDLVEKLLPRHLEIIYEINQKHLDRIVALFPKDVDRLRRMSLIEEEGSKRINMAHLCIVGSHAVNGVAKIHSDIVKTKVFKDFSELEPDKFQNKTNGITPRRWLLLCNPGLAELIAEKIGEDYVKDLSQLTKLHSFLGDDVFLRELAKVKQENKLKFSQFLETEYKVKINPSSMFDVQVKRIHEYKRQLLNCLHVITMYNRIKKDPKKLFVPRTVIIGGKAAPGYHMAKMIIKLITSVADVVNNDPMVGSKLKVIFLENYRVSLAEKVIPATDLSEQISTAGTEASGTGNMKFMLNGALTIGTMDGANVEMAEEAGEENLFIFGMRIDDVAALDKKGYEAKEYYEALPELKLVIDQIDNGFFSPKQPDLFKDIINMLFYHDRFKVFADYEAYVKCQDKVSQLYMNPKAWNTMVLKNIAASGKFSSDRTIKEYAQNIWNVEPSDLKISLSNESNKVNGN
# Protocol: The activity of the compounds is determined by measuring the inhibitory effect of the compounds on glycogen degradation, the production of glucose-1-phosphate from glycogen is monitored by the multienzyme coupled assay, as described in EP 0 846 464 A2, general method of Pesce et al (Pesce, M A, Bodourian, S H, Harris, R C, and Nicholson, J F (1977) Clinical Chemistry 23, […]). The reactions were in 384 well microplate format in a volume of 50 μl. The change in fluorescence due to the conversion of the co-factor NAD to NADH is measured at 340 nm excitation, 465 nm emission in a Tecan Ultra Multifunctional Microplate Reader. The reaction is in 50 mM HEPES, 3.5 mM KH2PO4, 2.5 mM MgCl2, 2.5 mM ethylene glycol-bis(b-aminoethyl ether) N,N,N′N′-tetraacetic acid, 100 mM KCl, 8 mM D-(+)-glucose pH7.2, containing 0.5 mM dithiothreitol, the assay buffer solution. Human recombinant liver glycogen phosphorylase a (hrl GPa) 20 nM is pre-incubated in assay buffer solution with 6.25 mM NAD, 1.25 mg type III glycogen at 1.25 mg ml^−1 the reagent buffer, for 30 minutes. […] The non-inhibited activity of GPa is measured in the presence of 10 μl 15% DMSO in assay buffer solution and maximum inhibition measured in the presence of 5 mgs ml^−1 N-ethylmaleimide. […] Relative Fluoresence Units (RFUs) are measured at 340 nm excitation, 465 nm emission. […]
# Activity is calculated as follows:—
# [2] = test system: conscious dogs; settings: following a glucagon challenge; cited from earlier work
# [3] = test system: hepatocytes; settings: cited from earlier work; for glucose output: glucagon stimulated
# [4] = test system: db/db and ob/ob mice; settings: db/db and ob/ob mice following treatment; cited from earlier work
IC50 [1],SMILES,glucagon stimulated glycogenolysis [3],glucose output [3],plasma glucose concentration [4],further results
161 nM,"O=C(O)C[C@@H]1c2ccccc2C[C@H]1NC(=O)c1cc2cc(F)ccc2[nH]1 [Example 5, ((1R,2R)-2-{[(5-Fluoro-1H-indol-2-yl)carbonyl]amino}-2,3-dihydro-1H-inden-1-yl)acetic acid]",,,,
,CCN1C(C)=C(C(=O)OC(C)C)C(c2ccccc2Cl)C2=C1COC2=O (stereo not shown) [Bay R 3401],,,,arterial plasma glucose [2]: reduced significantly; hepatic glucose output [2]: reduced significantly
1670 nM,"O=C(O)COC[C@@H]1c2ccccc2C[C@H]1NC(=O)c1cc2cc(F)ccc2[nH]1 [Example 2, [((1R,2R)-2-{[(5-Fluoro-1H-indol-2-yl)carbonyl]amino}-2,3-dihydro-1H-inden-1-yl)methoxy]acetic acid]",,,,
,O=C(N[C@@H](Cc1ccc(F)cc1)C(=O)N1CCC(O)CC1)c1cc2cc(Cl)ccc2[nH]1 [CP320626],reduce,reduce,"reduced, in a dose related manner",
,CN(C)C(=O)[C@H](O)[C@H](Cc1ccccc1)NC(=O)c1cc2cc(Cl)ccc2[nH]1 [CP91149],reduce,reduce,"reduced, in a dose related manner",

# Reference: patent US20090124682A1, “Indan-Amide Derivatives with Glycogen Phosphorylase Inhibitory Activity” (priority 2005, published 2009)
